Experimental findings from patent US6916849B2, “Compositions for improving lipid content in the blood” (priority 2000, dated 2005) are described below.

One data set has as its system ALP in the serum. The settings on record: oral capsule once daily, pravastatin 2 mg/kg, riboflavin acetate 6 mg/kg, relative to pre-administration average (100), mean of 5 dogs.
Data set [1] relates to total cholesterol in the serum. Put plainly: Evaluation of serum lipid level: total cholesterol in serum of beagle dogs after oral administration for 11 days (CEH-COD-POD method). The conditions noted are these: oral capsule once daily, pravastatin 2 mg/kg, mean of 5 dogs.
From the text: (§1) Pravastatin with a purity of 99.4%, manufactured at Sankyo Co. Ltd., was employed in the study.
(§2) Male beagle dogs were purchased at 5 months old from Covance Research Products Inc., as the test animals, and were used after quarantine and acclimatization periods of approximately 1 month.
(§3) The required amounts of pravastatin or each combination drug as calculated based on the body weight of each animal were placed in a gelatin capsule (½-ounce volume) purchased from TORPAC Co. Capsules filled with pravastatin were stored in a cold room and with combination drugs at room temperature until use.
(§4) Combination drugs were put in identical geltin capsules.
(§5) Capsules filled with pravastatin or combination drugs were orally administered once daily between 9:00 and 12:30 to the test animals. All test animals were fasted 2-3 hr prior to administration. The administration period was 11 successive days.
(§6) Approximately 10 ml of blood were collected from the cephalic vein on 14 and 7 days before administration (2 and one week before the drug administration) and 4, 8, and 12 days after administration of the capsules. The animals were fasted for approximate 18 hr prior to blood collection. Collected blood was placed into test tubes and left for 0.5-1 hr at room temperature. The test tubes were then centrifuged at 3,000 rpm for 10 min to isolate serum. Levels of total cholesterol and ALP in the serum were determined by the CEH-COD-POD and Bessey-Lowry methods, respectively.
(§7) For quantitative analyses, an automatic analyzer, Monarch (Instrumentation Laboratory), was used.
(§8) Each value represents the mean value calculated from 5 animals.
Where [2] appears, read: riboflavin acetate 6 mg/kg, relative to pre-administration average (100).
Where [3] appears, read: d-α-tocopherol acetate 10 mg/kg, ascorbic acid 50 mg/kg, relative to pre-administration average (100).
Where [4] appears, read: d-α-tocopherol acetate 10 mg/kg, relative to pre-administration average (100).
Setting [5] is: ascorbic acid 50 mg/kg, relative to pre-administration average (100).

From the text for ALP in the serum: as §1, §2, §3, §4, §5, §6, §7, §8

Riboflavin acetate: the “ALP level (after administration), 4 days” value in the data set on ALP in the serum (4 days) came to 98.1. Also, the “ALP level (after administration), 8 days” value with ALP in the serum (8 days) turned out to be 98.8. For the same molecule, the “ALP level (after administration), 12 days” value in the data set on ALP in the serum (12 days) was determined as 93.9. For the same molecule, in data set [1] (riboflavin acetate 6 mg/kg, relative to average level 2 and 1 week before administration (100)), the “Total Cholesterol Level in Serum After Administration, 4 days” value (“Total Cholesterol Level … 4 days” for short) came to 103.9. In data set [1] (setting [2]), the “Total Cholesterol Level in Serum After Administration, 8 days” value (“Total Cholesterol Level … 8 days” for short) came out at 101.6 and the “Total Cholesterol Level in Serum After Administration, 12 days” value (“Total Cholesterol Level … 12 days” for short) is 100.5.

As to `CC(=O)Oc1c(C)c(C)c2c(c1C)CC[C@@](C)(CCC[C@H](C)CCC[C@H](C)CCCC(C)C)O2` [d-α-tocopherol acetate], in data set [1] (setting [3]), the “Total Cholesterol Level … 4 days” value was determined as 97.8; the “Total Cholesterol Level … 8 days” value is reported as 96.4; the “Total Cholesterol Level … 12 days” value came out at 96.1. Moreover, in data set [1] (setting [4]), the “Total Cholesterol Level … 4 days” value is reported as 96.3; the “Total Cholesterol Level … 8 days” value is listed as 92.8; the “Total Cholesterol Level … 12 days” value amounted to 95.9.

Regarding `O=C1O[C@H]([C@@H](O)CO)C(O)=C1O` [Ascorbic acid, ascorbic acid], in data set [1] (setting [5]), the “Total Cholesterol Level … 4 days” value is on record as 98.7; the “Total Cholesterol Level … 8 days” value was 98.2; the “Total Cholesterol Level … 12 days” value is on record as 103.4.
